The text below walks through data of patent US11472832B2, “Withanolides useful for the treatment of neurodegenerative diseases” (priority 2013, dated 2022).

Like-named read-outs stand apart in the source and are kept apart here.

For data set [1], the system named is NF-κB. As to the kind of experiment: NF-κB luciferase reporter activity in BV2 microglial cells stimulated with LPS. The data set is classed as cell-based. Conditions: BV-2 cells, LPS 100 ng/ml, 4 h. On the procedure:
An NF-κB specific luciferase reporter system in BV-2 microglial cells was first established. This cell line was generated by stable transfection of BV-2 cells with stable insertion of a luciferase reporter 4 kBwt luciferase plasmid and subsequent selection with hygomycin. LPS was used to stimulate NF-κB activity in these cells. Twenty-five thousand hygromycin B-resistant BV-2 cells were seeded per well in 24-well dishes and allowed to adhere overnight. The next morning, the culture medium (DMEM+10% FBS) was removed and 1 ml of fresh medium (DMEM without FBS) added to each well. The stock solutions of withanolides (2 mg/ml in DMSO) were diluted in 1×PBS to various concentration (0.05 to 5 uM) and added to the wells. LPS was added one hour later at a final concentration of 100 ng/ml. Four hours later, the BV-2 cells were rinsed with 1×PBS prior to proceeding with the luciferase assay that was performed according to the manufacturer's instructions (Bright-Glo™ luciferase assay system, Promega, Wis.).
(In general: Reporter assays use an easily measured gene product as a stand-in for the process of interest.)

Data set [2] deals with NF-κB. Nature of the data set: TNF-α-induced signalling activity in HEK293-NF-κB-luciferase reporter cell line. The data set is classed as cell-based. Conditions: HEK-293 cells; for IC50: TNF-alpha 40 ng/ml, 4 h, luciferase; for inhibition of NF-κB expression: TNF-alpha, 0.05 to 5 uM, FIG. 3. On the procedure:
Ten thousand hygromycin B-resistant HEK-293 cells were seeded per well in a 96-well plate (Corning, New-York) and allowed to adhere overnight. The next morning, the culture medium (DMEM+10% FBS) was removed and […] of fresh medium (DMEM without FBS) added to each well. […] Human recombinant TNF-alpha (R&D Systems, Minneapolis) was added one hour later at a final concentration of 40 ng/ml. Four hours later, the HEK-293 cells were rinsed with 1×PBS prior to the luciferase assay, which was performed according to the manufacturer's instructions (Bright-Glo™ luciferase assay system, Promega, Wis.).

Data set [3] deals with TDP-43 A315T transgenic mice. As to conditions: 5 mg/kg i.p. every 2 days for 15 weeks. On the procedure: The TDP-43 A315T mouse model for ALS is fully described in Swamp, V et al., Brain 134: 2610-2626 2011.
Male and female TDP-43 A315T mice of approximately 9 months and 25-55 gm were included in the study, and were randomly assigned to three groups, as follows:
Group 2 (n=7) (the control group) received vehicle (2% polysorbate [Tween-80]/5% DMSO/93% saline); and
The injection volume at 12.5 mL/kg was based on the body weight of each individual animal at the start of the study.
Accelerating rotarod (as described in Gros-Louis, F., et al. Hum Mol Genet 17, 2691-2702 (2008)) was performed prior to first dosing and at weekly interval during the study. Testing was performed at 4-rpm speed with 0.25 rpm/s acceleration. Each mouse was subjected to three trials per session. The number of seconds each mouse remained on the rotarod apparatus for each trial was recorded.

The test system of data set [4] is LPS-induced astrogliosis (GFAP promoter luciferase reporter). Conditions: GFAP-luc mice, LPS inhaled, 4 mg/kg i.p. 2 h after LPS and 2 h before imaging, imaging 24 h after LPS.
Procedure: In vivo bioluminescence imaging was performed to asses the inflammatory response in the cranial region.
GFAP-luc transgenic mice were used to test in vivo the efficacy of these analogs. In these transgenic mice, the firefly luciferase reporter gene is under the control of a 12 kb DNA fragment of the glial fibrillary acidic protein (GFAP) promoter (Caliper Life Sciences). The luciferase reporter is inducible following LPS administration resulting in GFAP transcriptional regulation. If the administration of test compounds following the injection of LPS decreases LPS-induced astrogliosis in GFAP-luc mice, this is visualized as a reduced bioluminescent signal upon imaging.
Transgenic mice under anesthesia were induced to inhale either 5 ul of a solution of LPS (1 mg/ml in 0.9% saline) or a solution of 0.9% saline alone followed 2 h later by an intraperitoneal (i.p.) injection of 0.5 ml of the test compounds (10% dilution in 0.9% saline) at a final concentration of 4 mg/kg. The following day, 2 h before imaging (24 h after the administration of the LPS solution), the transgenic mice were again injected with the withanolides as previously. Twenty minutes prior to imaging, the mice received an i.p. injection of the luciferase substrate D-luciferin (150 mg/kg). D-luciferin was dissolved in 0.9% saline to a final concentration of 20 mg/ml. […]
In a further data set the test system is C57BL/6 female mice. Conditions: i.p.; for clinical observations post-dosing: 65 mg/kg; for safety profile compared with WA: 20 to 65 mg/kg.

The IC50 is the concentration at which inhibition is half-maximal. Low readings indicate greater potency, high ones weaker potency. In turn, `COCC1=C(C)C[C@H]([C@@H](C)[C@H]2CC[C@H]3[C@@H]4C[C@H]5O[C@]56[C@@H](O)C=CC(=O)[C@]6(C)[C@H]4CC[C@]23C)OC1=O` [27-O-methyl WA, 27-O-methylwithaferin A] returned a concentration for half-maximal inhibition (IC50) in the data set on NF-κB [1] of 710 nM. Besides, in the data set with NF-κB [2], it took 260 nM to reach half-maximal inhibition (IC50) and the “inhibition of NF-κB expression” value is given as “inhibited NF-κB expression”. Also, the “rotarod performance over the 15 week period” value in data set [3] is reported as “improved”. For the same molecule, the “bioluminescent signal in brain (astrogliosis) compared to saline-DMSO” value in data set [4] is given as “significant decrease”. The mortality entry in the data set with C57BL/6 female mice (55 mg/kg) was “no mortality”. Further, in the data set with C57BL/6 female mice, the clinical observations post-dosing entry was “some weakness and a decrease in activity”; the “safety profile compared with WA” value is given as “much better safety profile than WA”. In addition, the mortality entry in the data set with C57BL/6 female mice (65 mg/kg (highest dose tested)) is “no mortality”.

As to `COCC1=C(C)C[C@H]([C@@H](C)[C@H]2CC[C@H]3[C@@H]4C[C@H]5O[C@]56[C@@H](OC)C=CC(=O)[C@]6(C)[C@H]4CC[C@]23C)OC1=O` [4,27-O-dimethyl WA, 4,27-O-dimethylwithaferin A], in the data set on NF-κB [1], the half-maximal inhibitory concentration (IC50) was 800 nM. Further, in the data set on NF-κB [2], the half-inhibitory concentration (IC50) turned out to be 450 nM and the “inhibition of NF-κB expression” value is reported as “inhibited NF-κB expression”.

Consider `CC1=C(CO)C(=O)O[C@@H]([C@@H](C)[C@H]2CC[C@H]3[C@@H]4C[C@H]5O[C@]56[C@@H](O)C=CC(=O)[C@]6(C)[C@H]4CC[C@]23C)C1` [WA, Withaferin A, reference compound], for which the IC50 in the data set with NF-κB [1] (Mus musculus) is 500 nM; in the data set with NF-κB [2] (Homo sapiens, HEK293) it was 340 nM.

On to `CO[C@H]1C=CC(=O)[C@]2(C)[C@H]3CC[C@]4(C)[C@@H]([C@H](C)[C@H]5CC(C)=C(CO)C(=O)O5)CC[C@H]4[C@@H]3C[C@H]3O[C@]132` [4-O-methyl WA, 4-O-methylwithaferin A], for which the IC50 in the data set on NF-κB [1] came to 970 nM. For the same molecule, in the data set on NF-κB [2], the IC50 amounted to 320 nM and the “inhibition of NF-κB expression” value is “inhibited NF-κB expression”. Further, in data set [3], the “rotarod performance over the 15 week period” value was “improved”. For the same molecule, the “bioluminescent signal in brain (astrogliosis) compared to saline-DMSO” value in data set [4] is listed as “significant decrease”. Also, the mortality result in the data set on C57BL/6 female mice (55 mg/kg) is reported as “no mortality”. In the data set with C57BL/6 female mice, the clinical observations post-dosing result is “some weakness and a decrease in activity”; the “safety profile compared with WA” value is “much better safety profile than WA”. In the data set on C57BL/6 female mice (65 mg/kg (highest dose tested)), the mortality result is on record as “no mortality”.
